# According to patent US4769374A, “Tetrahydroisoquinoline ethyl esters of 1,4-dihydropyridines and antihypertensive compositions” (Poli Industria Chimica S.p.A., priority 1984, dated 1988):
# Experiments:
# [1] = tested on: spontaneous hypertensive rats (systolic pressure of the caudal artery); assay: Antihypertensive activity per os in spontaneous hypertensive rats; type: in vivo, rat; conditions: 3 mg/kg p.o., percentage of the decrease of the systolic pressure
# Procedure: The antihypertensive activity was determined by administering spontaneous hypertensive rats with the compounds of the invention, by oral route, as a suspension in carboxymethylcellulose containing 0.5% of physiologic solution. […] The obtained results are reported in Table 2, and are expressed as the percentage of the decrease of the sistolic pressure after treatment.
# [2] = in vivo; conditions: mouse, mice of both sexes, oral, day 14 of observation
# Procedure: The acute toxicity was determined on mice of both sexes upon oral administration of the compounds to be tested as a suspension in carboxymethylcellulose containing 0.5% of physiologic solution, and it was expressed as an LD50 value at day 14 of observation.
SMILES,"Pressure variations (pressure time 0 - less pressure after administration), 15 min. [1] [%]","Pressure variations (pressure time 0 - less pressure after administration), 1 h [1] [%]","Pressure variations (pressure time 0 - less pressure after administration), 3 h [1] [%]","Pressure variations (pressure time 0 - less pressure after administration), 5 h [1] [%]",LD50 at 336 h [2] [mg/kg]
"CCOC(=O)C1=C(C)NC(C)=C(C(=O)OCCN2CCc3ccccc3C2)C1c1cccc([N+](=O)[O-])c1 (stereo not drawn) [I, R = C2 H5]",43 ± 10.2,31 ± 7.1,22 ± 9.4,11 ± 6.9,1000
"COC(=O)C1=C(C)NC(C)=C(C(=O)OCCN2CCc3ccccc3C2)C1c1cccc([N+](=O)[O-])c1.Cl (stereo not drawn) [I, R = CH3, 2-(1,2,3,4-Tetrahydro-isoquinoline-2-yl)ethyl 1,4-dihydro-2,6-dimethyl-4-(3-nitrophenyl)-5-methoxycarbonyl-pyridine-3-carboxylate, mono-hydrochloride]",54 ± 6.4,86 ± 7.3,73 ± 12.8,49 ± 8.7,1000
"CC1=C(C(=O)OCCN2CCc3ccccc3C2)C(c2cccc([N+](=O)[O-])c2)C(C(=O)OC(C)C)=C(C)N1 (stereo not drawn) [I, R = CH(CH3)2]",39 ± 7.6,38 ± 6.9,18 ± 6.1,2 ± 3.1,1000
"COC(=O)C1=C(C)NC(C)=C(C(=O)OCCN(C)Cc2ccccc2)C1c1cccc([N+](=O)[O-])c1 (stereo not drawn) [Nicardipine, reference compound]",49 ± 11.3,52 ± 9.7,36 ± 6.2,21 ± 5.8,350
"COC(=O)C1=C(C)NC(C)=C(C(=O)OC)C1c1ccccc1[N+](=O)[O-] [Nifedipine, reference compound]",41 ± 5.4,23 ± 6.1,12 ± 4.3,9 ± 5.6,
